The values that follow come from patent publication US8927709B2, “Hepatitis C virus inhibitors” (Enanta Pharmaceuticals, Inc., priority 2009, dated 2015).

Structures are written as SMILES. Some results are limits rather than exact numbers.

The assay deals with HCV 1b genotype replicon. The assay is described as follows: HCV genotype-1b replicon assay (qRT-PCR or luciferase). It counts as cell-based. The note with it: Hepatitis C virus, HCV 1b replicon cell lines (SGR 11-7 or Huh-luc/neo-ET), a/b entries tested as mixture of the two compounds, read-out: Genotype-1b replicon EC50 Range. From the text: HCV replicon cell lines (kindly provided by R. Bartenschlager) isolated from colonies as described by Lohman et. al. (Lohman et al. (1999) Science 285: 110-113, expressly incorporated by reference in its entirety) and used for all experiments. The HCV replicon has the nucleic acid sequence set forth in EMBL Accession No.: AJ242651, the coding sequence of which is from nucleotides 1801 to 8406.
The coding sequence of the published HCV replicon was synthesized and subsequently assembled in a modified plasmid pBR322 (Promega, Madison, Wis.) using standard molecular biology techniques. […]
EC50 values of single agent compounds and combinations were determined by HCV RNA detection using quantitative RT-PCR, according to the manufacturer's instructions, with a TAQMAN® One-Step RT-PCR Master Mix Reagents Kit (Cat# AB 4309169, Applied Biosystems) on an ABI Model 7500 thermocycler. The TaqMan primers used for detecting and quantifying HCV RNA were obtained from Integrated DNA Technologies. HCV RNA was normalized to GAPDH RNA levels in drug-treated cells, which was detected and quantified using the Human GAPDH Endogenous Control Mix (Applied Biosystems, AB 4310884E). […] Chemical agent cytotoxicity was evaluated using an MTS assay according to the manufacturer's directions (Promega). […]
(In general: A replicon is a self-replicating genome or part of one, used to study replication in cells.)

As usually defined, the EC50 is the concentration at which the effect is half-maximal.

On to `COC(=O)N[C@H](C(=O)N1CCC(c2nc3cc(-c4ccc(-c5c[nH]c([C@@H]6CCCN6C(=O)[C@@H](NC(=O)OC)C(C)C)n5)cc4)ccc3[nH]2)C1)C(C)C` (some centres unmarked) [Example 343], for which the EC50 is 1 to 10 nM.

As to `COC(=O)N[C@H](C(=O)N1CCC(c2nc(-c3ccc(-c4ccc(-c5c[nH]c([C@@H]6CCCN6C(=O)[C@@H](NC(=O)OC)C(C)C)n5)cc4)cc3)c[nH]2)C1)C(C)C` (some centres unmarked) [Example 345], the concentration giving a half-maximal response (EC50) was less than 1 nM.
